Experimental findings from ChEMBL document CHEMBL3351707, “Discovery and SAR of muscarinic receptor subtype 1 (M1) allosteric activators from a molecular libraries high throughput screen. Part 1: 2,5-dibenzyl-2H-pyrazolo[4,3-c]quinolin-3(5H)-ones as positive allosteric modulators” (Bioorg Med Chem Lett, 2015) are described below.

Common to all, as to type: functional, cell-based
Assay [1] addresses T1, Muscarinic acetylcholine receptor M1 (Homo sapiens, UniProt P11229).
T1 sequence (P11229 whole entry): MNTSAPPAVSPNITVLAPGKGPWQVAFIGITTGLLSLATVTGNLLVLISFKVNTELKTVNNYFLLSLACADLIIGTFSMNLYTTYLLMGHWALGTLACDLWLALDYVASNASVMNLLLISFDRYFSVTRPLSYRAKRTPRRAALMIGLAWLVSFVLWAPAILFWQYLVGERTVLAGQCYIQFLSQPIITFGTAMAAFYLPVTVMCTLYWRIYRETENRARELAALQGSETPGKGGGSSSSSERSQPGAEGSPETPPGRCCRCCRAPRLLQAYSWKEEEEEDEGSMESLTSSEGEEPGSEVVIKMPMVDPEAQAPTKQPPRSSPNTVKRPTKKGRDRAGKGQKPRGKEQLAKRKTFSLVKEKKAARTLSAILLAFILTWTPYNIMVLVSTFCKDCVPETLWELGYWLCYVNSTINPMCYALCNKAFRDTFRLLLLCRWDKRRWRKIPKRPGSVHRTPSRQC
Description: (§1) Positive allosteric modulator activity at human muscarinic receptor subtype 1 expressed in CHO-K1 cells by calcium mobilization assay. For orientation: Calcium assays in cells follow changes in intracellular calcium, usually with a dye or a luminescent sensor.

The target in assay [2] is T2, Muscarinic acetylcholine receptor M1 (Homo sapiens) (UniProt P11229).
T2 sequence (whole entry): T1 sequence (P11229 whole entry)
Description: Positive allosteric modulator activity at human muscarinic receptor subtype 1 expressed in CHO-K1 cells by calcium mobilization assay relative to acetylcholine.

Assay [3] has as its target T2, Muscarinic acetylcholine receptor M1 (Homo sapiens). The assay is described as §1.
For assay [4] the target is unchanged. Kind of assay: Positive allosteric modulator activity at human muscarinic receptor subtype 1 expressed in CHO-K1 cells at 30 uM by calcium mobilization assay relative to acetylcholine.

Calls of active or inactive are those of the source. No cut-off for these calls is given here.

Turning to `Cc1ccccc1Cn1nc2c3ccccc3n(Cc3ccccc3)cc-2c1=O`, the EC50 in assay [1] (read-out: EC50) stood at 783 nM. Also, the Emax in assay [2] was determined as 47%.

Consider `O=c1c2cn(Cc3ccccc3)c3ccccc3c-2nn1Cc1ccccc1`, for which the EC50 entry in assay [1] (cho-k1) is on record as “Not Active”. Besides, the pEC50 entry in assay [3] is “inactive”.

Turning to `Cc1ccc(Cn2nc3c4ccccc4n(Cc4ccccc4F)cc-3c2=O)c(C)c1`, the EC50 in assay [1] (read-out: EC50) stood at 656 nM. Besides, the Emax in assay [2] is 46%.

In the case of `O=c1c2cn(Cc3ccccc3)c3ccccc3c-2nn1Cc1ccccc1F`, in assay [1] (read-out: EC50), the EC50 was found to be 1010 nM. Also, the Emax in assay [2] is 36%.

For the compound `Cc1ccc(Cn2nc3c4ccccc4n(C)cc-3c2=O)c(C)c1`, the EC50 entry in assay [1] (cho-k1) is “Not Active”. Further, the pEC50 result in assay [3] is “inactive”. Besides, the Emax result in assay [2] is “inactive”.

As to `O=c1c2cn(Cc3ccc(-n4cccn4)cc3)c3ccccc3c-2nn1Cc1ccccc1`, the EC50 in assay [1] (read-out: EC50) is over 10000 nM. The Emax in assay [4] turned out to be 50%.

As to `Cc1ccc(Cn2nc3c4ccccc4n(Cc4ccc(-n5cccn5)cc4)cc-3c2=O)c(C)c1`, in assay [1] (read-out: EC50), the EC50 was determined as 1150 nM. In assay [2], the Emax turned out to be 80%.

On to `Cc1ccc(Cn2nc3c4ccccc4n(Cc4ccccc4)cc-3c2=O)cc1`, for which the EC50 entry in assay [1] (cho-k1) was “Not Active”. Besides, the pEC50 result in assay [3] is “inactive”.

Turning to `Cn1cc(-c2ccc(Cn3cc4c(=O)[nH]nc-4c4ccccc43)c(F)c2)cn1`, in assay [1] (read-out: EC50), the EC50 stood at 600 nM. For the same compound, in assay [2], the Emax amounted to 89%.

As to `O=c1c2cn(Cc3ccccc3)c3ccccc3c-2nn1Cc1cccnc1`, the EC50 in assay [1] (read-out: EC50) came to 6310 nM. Also, the Emax in assay [2] was 65%.

For the compound `Cc1ccc(Cn2nc3c4ccccc4n(Cc4ccc(F)cc4)cc-3c2=O)c(C)c1`, in assay [1] (read-out: EC50), the EC50 came out at 2020 nM. Besides, the Emax in assay [2] was 47%.

Regarding `O=c1c2c[nH]c3ccccc3c-2nn1Cc1ccc(-n2cccn2)cc1`, in assay [1] (cho-k1), the EC50 result is “Not Active”. Also, in assay [3], the pEC50 entry is “inactive”.

With `Cc1ccc(Cn2cc3c(=O)n(Cc4ccc(C)cc4C)nc-3c3ccccc32)cc1`, the EC50 result in assay [1] (cho-k1) is recorded as “Not Active”. The pEC50 result in assay [3] is “inactive”. Besides, the Emax result in assay [2] was “inactive”.

`O=c1c2cn(Cc3ccccc3)c3ccccc3c-2nn1Cc1ccc(F)cc1`: in assay [1] (cho-k1), the EC50 entry is “Not Active”. In addition, the pEC50 result in assay [3] was “inactive”.

For the compound `Cc1ccc(Cn2nc3c4ccccc4n(Cc4ccccc4C)cc-3c2=O)c(C)c1`, the 50% effective concentration (EC50) entry in assay [1] (cho-k1) is listed as “Not Active”. For the same compound, in assay [3], the pEC50 result is “inactive”. For the same compound, in assay [2], the Emax result is “inactive”.

Turning to `Cc1cccc(Cn2cc3c(=O)n(Cc4ccc(C)cc4C)nc-3c3ccccc32)c1`, the EC50 result in assay [1] (cho-k1) is given as “Not Active”. In addition, the pEC50 result in assay [3] is “inactive”. Further, the Emax result in assay [2] is “inactive”.

Take `O=c1c2cn(Cc3ccccc3)c3ccccc3c-2nn1Cc1cccc(F)c1`: the EC50 entry in assay [1] (cho-k1) was “Not Active”. Further, in assay [3], the pEC50 result was “inactive”.

For the compound `Cc1ccc(Cn2nc3c4ccccc4n(Cc4ccc(-c5cnn(C)c5)cc4F)cc-3c2=O)c(C)c1`, the EC50 in assay [1] (read-out: EC50) was 1940 nM. Also, the Emax in assay [2] turned out to be 74%.

In the case of `COc1ccc(Cn2cc3c(=O)n(Cc4ccc(C)cc4C)nc-3c3ccccc32)c(F)c1`, the EC50 entry in assay [1] (cho-k1) is reported as “Not Active”. The pEC50 result in assay [3] was “inactive”. For the same compound, the Emax result in assay [2] was “inactive”.

In the case of `O=c1c2cn(Cc3ccccc3)c3ccccc3c-2nn1Cc1ccncc1`, in assay [1] (read-out: EC50), the EC50 was over 10000 nM. The Emax in assay [4] was found to be 54%.

Turning to `O=C1C(=O)N(Cc2ccccc2)c2ccccc21`, the Emax in assay [2] amounted to 34%.

With `Cn1cc(-c2ccc(Cn3nc4c5ccccc5[nH]cc-4c3=O)cc2)cn1`, the EC50 entry in assay [1] (cho-k1) is “Not Active”. In assay [3], the pEC50 entry was “inactive”.

For the compound `Cn1nc2c3ccccc3n(Cc3ccccc3)cc-2c1=O`, the EC50 in assay [1] (read-out: EC50) is over 10000 nM. In addition, the Emax in assay [4] worked out at 48%.

`COc1ccc(Cn2cc3c(=O)n(Cc4ccc(C)cc4C)nc-3c3ccccc32)cc1`: the EC50 in assay [1] (read-out: EC50) amounted to 821 nM. In addition, the Emax in assay [2] is 39%.

In the case of `Cn1nc2c3ccccc3n(Cc3ccc(-n4cccn4)cc3)cc-2c1=O`, in assay [1] (read-out: EC50), the EC50 came to 2430 nM. Also, the Emax in assay [2] was determined as 88%.

In the case of `Cc1ccc(C)c(Cn2nc3c4ccccc4n(Cc4ccccc4)cc-3c2=O)c1`, in assay [1] (read-out: EC50), the EC50 turned out to be 473 nM. The Emax in assay [2] was 40%.

Regarding `O=c1c2c[nH]c3ccccc3c-2nn1[C@@H]1CCCC[C@H]1O`, in assay [1] (cho-k1), the EC50 entry is recorded as “Not Active”. Besides, in assay [3], the pEC50 result is “inactive”.

With `Cc1cc(NC(=O)CS(=O)(=O)c2cn(Cc3ccc(-c4cnn(C)c4)nc3)c3cc(F)cc(F)c23)no1`, in assay [1] (read-out: EC50), the EC50 is 845 nM.

For the compound `Cc1ccc(Cn2nc3c4ccccc4n(Cc4ccccn4)cc-3c2=O)c(C)c1`, the EC50 in assay [1] (read-out: EC50) came out at 3790 nM. Moreover, the Emax in assay [2] worked out at 83%.

With `Cc1ccc(Cn2nc3c4ccccc4n(Cc4cccnc4)cc-3c2=O)c(C)c1`, the EC50 in assay [1] (read-out: EC50) amounted to 3660 nM. The Emax in assay [2] was 75%.

For the compound `Cc1cccc(Cn2nc3c4ccccc4n(Cc4ccccc4)cc-3c2=O)c1`, the EC50 entry in assay [1] (cho-k1) was “Not Active”. Further, in assay [3], the pEC50 entry was “inactive”.

Regarding `Cc1ccc(Cn2nc3c4ccccc4n(Cc4ccncc4)cc-3c2=O)c(C)c1`, the EC50 in assay [1] (read-out: EC50) came out at 1550 nM. In addition, in assay [2], the maximum response (Emax) was 82%.

Turning to `O=C1C(=O)N(Cc2ccc(-n3cccn3)cc2)c2ccccc21`, the Emax in assay [2] was 61%.

`Cc1ccc(Cn2nc3c4ccccc4n(Cc4cccc(F)c4)cc-3c2=O)c(C)c1`: the EC50 in assay [1] (read-out: EC50) amounted to 1420 nM. Besides, the Emax in assay [2] turned out to be 31%.

As to `Cc1ccc(C)c(Cn2nc3c4ccccc4[nH]cc-3c2=O)c1`, the EC50 in assay [1] (read-out: EC50) was over 30000 nM.

On to `O=c1c2cn(Cc3ccccc3)c3ccccc3c-2nn1Cc1ccccn1`, for which, in assay [1] (read-out: EC50), the EC50 was over 10000 nM. Also, in assay [4], the Emax was 59%.

For `Cc1ccc(C)c(CN2C(=O)C(=O)c3ccccc32)c1`, the EC50 entry in assay [1] (cho-k1) is on record as “Not Active”.

In the case of `O=c1[nH]nc2c3ccccc3n(Cc3ccc(-n4cccn4)cc3)cc1-2`, the EC50 in assay [1] (read-out: EC50) was determined as 1200 nM. For the same compound, the Emax in assay [2] was 83%.

The term EC50 denotes the concentration needed to bring the measured effect to its halfway point. As usually defined, the Emax is the greatest response seen or fitted, relative to the assay's reference.
